Earlier results as cited in paper PMC4338372 (FEBS Open Bio, 2015).

Test system: Src family kinase
Settings: macrophages; inhibition of Src family kinase

Q: For `CC(C)(C)n1nc(-c2ccc(Cl)cc2)c2c(N)ncnc21` [PP2], which phagocytosis efficiency is on record?
A: decreases phagocytosis efficiency in macrophages
